Laboratory results from patent US20220040280A1, “INHIBITORS AND USES THEREOF” (UNIVERSITY OF CANBERRA, priority 2016, published 2022).

Tests used:
LSD1s111p [1] = biological target: T1, LSD1s111p (Homo sapiens, UniProt O60341); experiment: Confocal microscopy of LSD1s111p in patient circulating tumor cells; format: cell-based; details: CTCs from two metastatic breast cancer patient liquid biopsies, FIG. 16
T1 construct: endogenous in cells; host or cells: circulating tumor cells from metastatic breast cancer patient blood
Source text: (§1) Cells were probed with either rabbit antibodies to LSD1s111p (Merck ABE1462), EGFR (AB2430), MET (ab51067), PD-L1 (sc-50298), goat antibodies to PD-L1 (sc-19091), SC-14033), (sc-19096), mouse antibodies to Cytokeratin (Miltenyi 130-090-866), CSV (Abnova H00007431-M08), vimentin (SC-6260) followed by visualisation with secondary anti mouse Alexa-Fluor 568 (A10037), secondary anti rabbit Alexa-Fluor 488 (A21206) or secondary anti goat Alexa-Fluor 633 (A21082).

PD-L2 = details: CTCs from two metastatic breast cancer patient liquid biopsies, FIG. 16
Protocol: (§4) Cells were permeabilised by incubating with 2% Triton X-100 for 20 min. Cells were probed with either rabbit antibodies to LSD1s111p (Merck ABE1462), EGFR (AB2430), MET (ab51067), PD-L1 (sc-50298), goat antibodies to PD-L1 (sc-19091), SC-14033), (sc-19096), mouse antibodies to Cytokeratin (Miltenyi 130-090-866), CSV (Abnova H00007431-M08), vimentin (SC-6260) followed by visualisation with secondary anti mouse Alexa-Fluor 568 (A10037), secondary anti rabbit Alexa-Fluor 488 (A21206) or secondary anti goat Alexa-Fluor 633 (A21082). Cover slips were mounted on glass microscope slides with ProLong Diamond Antifade© reagent (Life Technologies). Antibody staining was localised by confocal laser scanning microscopy. Single 0.5 μm sections were obtained using a Nikon x 60 oil immersion lens on the Nikon C1 plus confocal system running NIS-Elements AR 3.2 software. […] Digital confocal images were analysed using ImageJ software (ImageJ, NIH, Bethesda, Md., USA) to determine the nuclear/cytoplasmic fluorescence ratio (Fn/c) using the equation: Fn/c=(Fn−Fb)/(Fc−Fb), where Fn is nuclear fluorescence, Fc is cytoplasmic fluorescence, and Fb is background fluorescence or the Total Nuclear Fluorescence (TNFI), the Total Cytoplasmic Fluorescence (TCFI) or Total cell fluorescence. […] Florescence intensity was also measured in a minimum of n=10 cells for each sample set. […]

[2] = test system: cell surface vimentin (CSV); experiment: Confocal microscopy of cell surface vimentin in xenografted MDA-MB-231 cells; format: in vivo, mouse; details: xenograft MDA-MB-231 cells; Abraxane 60 mg/kg, Phenelzine 41 mg/kg, FIG. 10
Source text: as §1

cytokeratin [3] = experiment: Confocal microscopy of cytokeratin in xenografted MDA-MB-231 cells; format: in vivo, mouse; details: xenograft MDA-MB-231 cells; Abraxane 60 mg/kg, Phenelzine 41 mg/kg, FIG. 9
Source text: as §1

cytokeratin [4] = details: CTCs from two metastatic breast cancer patient liquid biopsies, FIG. 16
Protocol: as §4

LSD1s111p [5] = experiment: Confocal microscopy of LSD1s111p in xenografted MDA-MB-231 cells; format: in vivo, mouse; details: xenograft MDA-MB-231 cells; Abraxane 60 mg/kg, Docetaxel 10 mg/kg, Phenelzine 41 mg/kg; relative to vehicle control
Source text: as §1
The nuclear intensity of LSD1s111p was measured using confocal laser scanning microscopy in xenografted MDA-MB-231 cells treated with vehicle alone or Abraxene (60 mg/kg) or Docetaxel (10 mg/kg). Cells were fixed with 3.7% formaldehyde and permeabilized with 2% Triton-X-100, and then probed with a primary rabbit antibody to LSD1s111p, followed by the corresponding secondary antibody conjugated to Alexa-Fluor 488. Total nuclear fluorescence (TNFI) values for xenografted MDA-MB-231 cells were calculated. Data shown represents the mean±SE for at least 20 individual cells.

EGFR = experiment: Confocal microscopy of EGFR in xenografted MDA-MB-231 cells; format: in vivo, mouse; details: xenograft MDA-MB-231 cells; Abraxane 60 mg/kg, Docetaxel 10 mg/kg, Phenelzine 41 mg/kg; relative to vehicle control
Source text: as §1

SNAIL [6] = details: CTCs from metastatic breast cancer patients, in all but one patient, FIG. 17
Protocol: as §4

PD-L1 [7] = details: CTCs from metastatic breast cancer patients, in all but one patient, FIG. 17
Protocol: as §4

PD-L1 [8] = experiment: Confocal microscopy of PD-L1 in xenografted MDA-MB-231 cells; format: in vivo, mouse; details: xenograft MDA-MB-231 cells; Abraxane 60 mg/kg, Phenelzine 41 mg/kg, FIG. 9
Source text: as §1

MET = experiment: Confocal microscopy of MET in xenografted MDA-MB-231 cells; format: in vivo, mouse; details: xenograft MDA-MB-231 cells; Abraxane 60 mg/kg, Docetaxel 10 mg/kg, FIG. 11
Source text: as §1

SNAIL [9] = experiment: Confocal microscopy of SNAIL in xenografted MDA-MB-231 cells; format: in vivo, mouse; details: xenograft MDA-MB-231 cells; Abraxane 60 mg/kg, Docetaxel 10 mg/kg; relative to vehicle
Source text: as §1

[10] = test system: LSD1 phosphorylated at serine 111 (LSD1s111p); experiment: LSD1s111p in MDA-MB-231 cells treated with PKC inhibitors, confocal microscopy; format: cell-based, human; details: FIG. 26
Protocol: (§2) Confocal laser scanning microscopy was performed on either MDA-MB-231 cells treated with vehicle alone or MCF7 cells treated with vehicle alone or PMA for 60 hours. To assess the effect of the PKC inhibitors, C27 (Compound 27; (R)-2-((S)-4-(3-chloro-5-fluoro-6-(1H-pyrazolo[3,4-b]pyridine-3-yl)pyridine-2-yl)piperazin-2-yl)-3-methylbutan-2-ol; see Jimenez et al. (2013) J. Med. Chem., 56(5): 1799-1810) or bisindolylmaleimide (BIM), cells were then treated with C27, BIM or vehicle. Cells were fixed with 3.7% formaldehyde and permeabilized with 2% Triton-X-100, and were then probed with primary rabbit antibody to PKC-θ and a primary mouse antibody to LSD1 or LSD1 phosphorylated at serine 111 (LSD1s111p), respectively, followed by the corresponding secondary antibody conjugated to Alexa-Fluor 488 or Alexa-Fluor 568. Total nuclear fluorescence (TNFI) values for non-stimulated and stimulated MCF7 and MDA-MB-231 cells were calculated. […] The plot-profile feature of ImageJ was used to plot the fluorescence signal intensity along a single line spanning the nucleus (n=5 lines per nucleus, 5 individual cells). The average fluorescence signal intensity for the indicated pair of antibodies was plotted for each point on the line with SE. […] The PCC was determined for each plot profile, which indicates the strength of relation between the two fluorochrome signals for at least 20 individual cells ±SE. […]

[11] = test system: LSD1 phosphorylated at serine 111 (LSD1s111p); experiment: LSD1s111p in MCF7 cells treated with PKC inhibitors, confocal microscopy; format: cell-based, human; details: FIG. 26
Protocol: as §2

SNAIL [12] = experiment: Nuclear SNAIL in MDA-MB-231 cells treated with LSD1 inhibitors, confocal microscopy; format: cell-based, human; details: FIG. 30
Protocol: (§3) Confocal laser scanning microscopy was performed on either MDA-MB-231 cells treated with vehicle alone or MCF7 cells treated with vehicle alone or PMA for 60 h, and subsequently treated with a test inhibitor or vehicle alone. Test inhibitors include LSD1 siRNA or LSD1 catalytic inhibitors NCD36 (2-[N-(4-phenylbenzenecarbonyl)]amino-6-(trans-2-phenylcyclopropan-1-amino)-N-(3-methylbenzyl)hexanamide hydrochloride) or pargyline (Parg). Cells were fixed with 3.7% formaldehyde and permeabilized with 2% Triton-X-100, and then probed with a primary mouse antibody to LSD1 and a primary goat antibody to SNAIL, respectively, followed by the corresponding secondary antibodies conjugated to Alexa-Fluor 488 and […], respectively. TNFI values for MDA-MB-231, non-stimulated MCF7 and stimulated MCF7 cells were calculated. Data shown represent the mean±SE for at least 20 individual cells.

LSD1 [13] = biological target: T2, LSD1 (Homo sapiens, UniProt O60341); experiment: Nuclear LSD1 in MCF7 cells treated with LSD1 inhibitors, confocal microscopy; format: cell-based; details: MCF7 cells stimulated with PMA for 60 hours, FIGS. 28 and 29
T2 construct: endogenous in cells; host or cells: MCF7 (non-stimulated or PMA-stimulated) and MDA-MB-231 breast cancer cells
Protocol: as §3

SNAIL [14] = experiment: Nuclear SNAIL in MCF7 cells treated with LSD1 inhibitors, confocal microscopy; format: cell-based, human; details: MCF7 cells stimulated with PMA for 60 hours, FIGS. 28 and 29
Protocol: as §3

LSD1 [15] = biological target: T2, LSD1; experiment: Nuclear LSD1 in MDA-MB-231 cells treated with LSD1 inhibitors, confocal microscopy; format: cell-based; details: FIG. 30
Protocol: as §3

Compound	expression of LSD1s111p (TCFI) (LSD1s111p [1])	expression of PD-L2 (TCFI) (PD-L2)	expression of cytokeratin (TCFI) (cytokeratin [4])	LSD1s111p expression, nuclear fluorescent signal (TNFI) (LSD1s111p [5])	EGFR nuclear expression (TNFI) (EGFR)	SNAIL expression (total cell fluorescence) (SNAIL [6])	PD-L1 expression (total cell fluorescence) (PD-L1 [7])	LSD1 phosphorylation (LSD1s111p, TNFI) [10]	LSD1 phosphorylation (LSD1s111p, TNFI) [11]	nuclear fluorescence signal of SNAIL (SNAIL [12])	nuclear fluorescence signal of LSD1 (LSD1 [13])	nuclear fluorescence signal of SNAIL (SNAIL [14])	nuclear fluorescence signal of LSD1 (LSD1 [15])	also measured
NNCCc1ccccc1 [Phenelzine, (+)-2-phenylethylhydrazine]	significant knockdown	significant knockdown	significant knockdown	inhibitory effect	inhibitory effect	significant knockdown	significant knockdown	–	–	–	–	–	–	cell surface vimentin (CSV) cytoplasmic expression (TCFI) [2]: abrogated; cytokeratin expression (cytokeratin [3]): abrogated; PD-L1 expression in the cytoplasm (TCFI) (PD-L1 [8]): significantly abrogated; PD-L1 expression in the nucleus (TNFI) (PD-L1 [8]): significantly abrogated; PD-L1 nuclear bias (Fn/c) (PD-L1 [8]): higher; total PD-L1 expression (PD-L1 [8]): significantly reduced
CC(=O)O[C@@]12CO[C@@H]1C[C@H](O)[C@@]1(C)C(=O)[C@H](O)C3=C(C)[C@@H](OC(=O)[C@H](O)[C@@H](NC(=O)OC(C)(C)C)c4ccccc4)C[C@@](O)([C@@H](OC(=O)c4ccccc4)[C@H]21)C3(C)C [Docetaxel]	–	–	–	significantly increased	significantly increased	–	–	–	–	–	–	–	–	MET nuclear expression (TNFI) (MET): significantly increased; SNAIL nuclear fluorescent signal (TNFI) (SNAIL [9]): significantly increased
CC(C)[C@@](C)(O)[C@@H]1CN(c2nc(-c3n[nH]c4ncccc34)c(F)cc2Cl)CCN1 [Peptide C27, (R)-2-((S)-4-(3-chloro-5-fluoro-6-(1H-pyrazolo[3,4-b]pyridine-3-yl)pyridine-2-yl)piperazin-2-yl)-3-methylbutan-2-ol]	–	–	–	–	–	–	–	significantly abrogated	significantly abrogated	–	–	–	–	–
Cc1cccc(CNC(=O)C(CCCCN[C@@H]2C[C@H]2c2ccccc2)NC(=O)c2ccc(-c3ccccc3)cc2)c1.Cl (relative stereo) [NCD36, 2-[N-(4-phenylbenzenecarbonyl)]amino-6-(trans-2-phenylcyclopropan-1-amino)-N-(3-methylbenzyl)hexanamide hydrochloride]	–	–	–	–	–	–	–	–	–	significantly abrogated	significantly abrogated	significantly abrogated	significantly abrogated	–
C#CCN(C)Cc1ccccc1 [Pargyline, pargyline]	significant knockdown	significant knockdown	significant knockdown	–	–	significant knockdown	significant knockdown	–	–	significantly abrogated	significantly abrogated	significantly abrogated	significantly abrogated	–
bisindolylmaleimide [BIM]	–	–	–	–	–	–	–	significantly abrogated	significantly abrogated	–	–	–	–	–
